What follows are compounds tested against T1, K-Ras G12C (Homo sapiens, UniProt P01116, G12C) (assay: CAF assay (% CAF; method in Example 7, not in this part)). Conditions: 10 uM compound, 1 h incubation.
T1 construct: This protein contained 188 amino acids in total, including an N-terminal 6-Histidine tag; made in house; host or cells: E. coli BL21
Format: binding

In order of rising “% CAF @ 10 uM, 1h” value:
1. C=CC(=O)N1CCN(c2nc(=O)n3c4c(c(-c5cc(Cl)c(F)cc5F)c(Cl)cc24)SC[C@@H]3CN2CCC3(CC2)COC3)[C@@H](C)C1 (atropisomer, axis not shown) [Example 483, (3S,10R)-3-((2-oxa-7-azaspiro[3.5]nonan-7-yl)methyl)-7-((S)-4-acryloyl-2-methylpiperazin-1-yl)-9-chloro-10-(5-chloro-2,4-difluorophenyl)-2,3-dihydro-5H-[1,4]thiazino[2,3,4-ij]quinazolin-5-one]  15.7%
2. C=CC(=O)N1C[C@H](C)N(c2nc(=O)n3c4c(c(-c5cc(F)c(F)cc5F)c(Cl)cc24)SC[C@@H]3CN2CCC3(CC2)COC3)C[C@H]1C (atropisomer, axis not shown) [Example 485, (3S,10R)-3-((2-oxa-7-azaspiro[3.5]nonan-7-yl)methyl)-7-((2S,5R)-4-acryloyl-2,5-dimethylpiperazin-1-yl)-9-chloro-10-(2,4,5-trifluorophenyl)-2,3-dihydro-5H-[1,4]thiazino[2,3,4-ij]quinazolin-5-one]  45%
3. C=CC(=O)N1C[C@H](C)N(c2nc(=O)n3c4c(c(-c5cc(F)c(F)cc5F)c(Cl)cc24)SC[C@@H]3CN2CCC3(CC2)COC3)C[C@H]1C (atropisomer, axis not shown) [Example 484, (3S,10S)-3-((2-oxa-7-azaspiro[3.5]nonan-7-yl)methyl)-7-((2S,5R)-4-acryloyl-2,5-dimethylpiperazin-1-yl)-9-chloro-10-(2,4,5-trifluorophenyl)-2,3-dihydro-5H-[1,4]thiazino[2,3,4-ij]quinazolin-5-one]  77.9%
4. C=CC(=O)N1CCN(c2nc(=O)n3c4c(c(-c5cc(Cl)c(F)cc5F)c(Cl)cc24)SC[C@@H]3CN2CCC3(CC2)COC3)[C@@H](C)C1 (atropisomer, axis not shown) [Example 482, (3S,10S)-3-((2-oxa-7-azaspiro[3.5]nonan-7-yl)methyl)-7-((S)-4-acryloyl-2-methylpiperazin-1-yl)-9-chloro-10-(5-chloro-2,4-difluorophenyl)-2,3-dihydro-5H-[1,4]thiazino[2,3,4-ij]quinazolin-5-one]  90%
5. C=CC(=O)N1C[C@H](C)N(c2nc(=O)n3c4c(c(-c5ccc(F)cc5F)c(C(F)(F)F)cc24)SC[C@@H]3COC)C[C@H]1C (atropisomer, axis not shown) [Example 508, (3S,10S)-7-((2S,5R)-4-acryloyl-2,5-dimethylpiperazin-1-yl)-10-(2,4-difluorophenyl)-3-(methoxymethyl)-9-(trifluoromethyl)-2,3-dihydro-5H-[1,4]thiazino[2,3,4-ij]quinazolin-5-one]  92%
6. C=CC(=O)N1C[C@H](C)N(c2nc(=O)n3c4c(c(-c5ccc(F)cc5F)c(C(F)(F)F)cc24)SC[C@@H]3COC)C[C@H]1C (atropisomer, axis not shown) [Example 509, (3S,10R)-7-((2S,5R)-4-acryloyl-2,5-dimethylpiperazin-1-yl)-10-(2,4-difluorophenyl)-3-(methoxymethyl)-9-(trifluoromethyl)-2,3-dihydro-5H-[1,4]thiazino[2,3,4-ij]quinazolin-5-one]  96.5%

Same assay, conditions: 10 uM, 1 h; Table 3

In order of falling “% CAF @ 10 uM, 1h” value:
1. C=CC(=O)N1CCN(c2nc(=O)n3c4c(c(-c5ccccc5F)c(Cl)cc24)SCC3)[C@@H](C)C1 (atropisomer, axis not shown) [Example 124, (S)-7-((S)-4-acryloyl-2-methylpiperazin-1-yl)-9-chloro-10-(2-fluorophenyl)-2,3-dihydro-5H-[1,4]thiazino[2,3,4-ij]quinazolin-5-one]  96%
2. C=CC(=O)N1CCN(c2nc(=O)n3c4c(c(-c5ccc(F)cc5F)c(Cl)cc24)SCC3)[C@@H](C)C1 (atropisomer, axis not shown) [Example 180, (R)-7-((S)-4-acryloyl-2-methylpiperazin-1-yl)-9-chloro-10-(2,4-difluorophenyl)-2,3-dihydro-5H-[1,4]thiazino[2,3,4-ij]quinazolin-5-one]  94.7%
3. C=CC(=O)N1C[C@H](C)N(c2nc(=O)n3c4c(c(-c5ccc(F)cc5F)c(Cl)cc24)S(=O)(=O)CC3)C[C@H]1C (atropisomer, axis not shown) [Example 177, (S)-7-((2S,5R)-4-acryloyl-2,5-dimethylpiperazin-1-yl)-9-chloro-10-(2,4-difluorophenyl)-2,3-dihydro-5H-[1,4]thiazino[2,3,4-ij]quinazolin-5-one 1,1-dioxide]  93.5%
4. C=CC(=O)N1CCN(c2nc(=O)n3c4c(c(-c5cccc6cnn(C)c56)c(Cl)cc24)SCC3)[C@@H](C)C1 (atropisomer, axis not shown) [Example 108, (R)-7-((S)-4-acryloyl-2-methylpiperazin-1-yl)-9-chloro-10-(1-methyl-1H-indazol-7-yl)-2,3-dihydro-5H-[1,4]thiazino[2,3,4-ij]quinazolin-5-one]  91.7%
5. C=CC(=O)N1CCN(c2nc(=O)n3c4c(c(-c5ccccc5F)c(Cl)cc24)SCC3)[C@@H](C)C1 (atropisomer, axis not shown) [Example 123, (R)-7-((S)-4-acryloyl-2-methylpiperazin-1-yl)-9-chloro-10-(2-fluorophenyl)-2,3-dihydro-5H-[1,4]thiazino[2,3,4-ij]quinazolin-5-one]  91.3%
6. C=CC(=O)N1C[C@H](C)N(c2nc(=O)n3c4c(c(-c5ccc(F)cc5F)c(Cl)cc24)S(=O)(=O)CC3)C[C@H]1C (atropisomer, axis not shown) [Example 178, (R)-7-((2S,5R)-4-acryloyl-2,5-dimethylpiperazin-1-yl)-9-chloro-10-(2,4-difluorophenyl)-2,3-dihydro-5H-[1,4]thiazino[2,3,4-ij]quinazolin-5-one 1,1-dioxide]  58.3%
7. C=CC(=O)N1CCN(c2nc(=O)n3c4c(c(-c5cccc6ccccc56)c(Cl)cc24)SCC3)[C@@H](C)C1 (atropisomer, axis not shown) [Example 172, 7-((S)-4-acryloyl-2-methylpiperazin-1-yl)-9-chloro-10-(naphthalen-1-yl)-2,3-dihydro-5H-[1,4]thiazino[2,3,4-ij]quinazolin-5-one]  51.9%
8. C=CC(=O)N1C[C@H](C)N(c2nc(=O)n3c4c(c(-c5cccc6ccccc56)c(Cl)cc24)SCC3)C[C@H]1C (atropisomer, axis not shown) [Example 183, 7-((2S,5R)-4-acryloyl-2,5-dimethylpiperazin-1-yl)-9-chloro-10-(naphthalen-1-yl)-2,3-dihydro-5H-[1,4]thiazino[2,3,4-ij]quinazolin-5-one]  45.3%
9. C=CC(=O)N1CCN(c2nc(=O)n3c4c(c(-c5cccc6cnn(C)c56)c(Cl)cc24)SCC3)[C@@H](C)C1 (atropisomer, axis not shown) [Example 107, (S)-7-((S)-4-acryloyl-2-methylpiperazin-1-yl)-9-chloro-10-(1-methyl-1H-indazol-7-yl)-2,3-dihydro-5H-[1,4]thiazino[2,3,4-ij]quinazolin-5-one]  0%
